# In patent US11839214B2, “Fungicidal mixture comprising substituted pyridines” (BASF SE, priority 2017, dated 2023):
# Like-named read-outs stand apart in the source and are kept apart here.
# Key:
# Format in all cases: cell-based
# Septoria tritici = test: Activity against leaf blotch on wheat caused by Septoria tritici (microtiterplate test)
# Pyricularia oryzae = test: microbe, parasite or virus in culture; settings: for Observed efficacy: single active compound
# Botrytis cinerea = test: Activity against the grey mold Botrytis cinerea in the microtiterplate test; settings: for inhibition of growth at 1 ppm / inhibition of growth at 0.25 ppm / inhibition of growth at 4 ppm / inhibition of growth at 16 ppm / inhibition of growth at 63 ppm / inhibition of growth at 0.063 ppm: Botrytis cinerea, 168 h, read-out: Observed efficacy
# Sclerotinia sclerotiorum = test: Activity against Sclerotinia sclerotiorum in the microtiterplate test
# [1] = single active compound, 0.063 ppm
# [2] = Zymoseptoria tritici, 168 h, single active, 1 ppm, read-out: Observed efficacy
# [3] = Pyricularia oryzae, 168 h, read-out: Observed efficacy
# [4] = Sclerotinia sclerotiorum, 168 h, single active compound, read-out: Observed efficacy
# [5] = Sclerotinia sclerotiorum, 168 h, single active compound, 4 ppm, read-out: Observed efficacy
# [6] = Zymoseptoria tritici, 168 h, single active, 4 ppm, read-out: Observed efficacy
# [7] = Zymoseptoria tritici, 168 h, single active, read-out: Observed efficacy
# [8] = single active compound, 0.25 ppm
# [9] = Zymoseptoria tritici, 168 h, single active, 0.25 ppm, read-out: Observed efficacy
# [10] = Zymoseptoria tritici, 168 h, single active, 0.063 ppm, read-out: Observed efficacy
# [11] = Zymoseptoria tritici, 168 h, single active, 0.016 ppm, read-out: Observed efficacy
# [12] = Zymoseptoria tritici, 168 h, read-out: Observed efficacy
smiles,measurement,setting,value
"CO/C=C(/C(=O)OC)c1ccccc1Oc1cc(Oc2ccccc2C#N)ncn1 [Azoxystrobin, azoxystrobin]",Observed efficacy,"Septoria tritici; single active, 0.004 ppm",5%
same,Observed efficacy,"Septoria tritici; single active, 0.016 ppm",2%
same,Observed efficacy,"Septoria tritici; single active, 0.063 ppm",26%
same,Observed efficacy,Pyricularia oryzae; 0.004 ppm,4%
same,Observed efficacy,Pyricularia oryzae; 0.016 ppm,44%
same,Observed efficacy,Botrytis cinerea; [1],5%
"O=C(Nc1ccccc1-c1ccc(Cl)cc1)c1cccnc1Cl [Boscalid, boscalid]",inhibition of growth at 1 ppm,Septoria tritici; [2],58%
same,inhibition of growth at 0.25 ppm,Pyricularia oryzae; [3],2%
same,inhibition of growth at 4 ppm,Pyricularia oryzae; [3],10%
same,inhibition of growth at 1 ppm,"Botrytis cinerea; single active compound, 1 ppm",63%
Cc1cc(C2=NC(C)(C)C(F)(F)c3ccccc32)cnc1C [Compound 1-1],inhibition of growth at 0.25 ppm,Sclerotinia sclerotiorum; [4],7%
same,inhibition of growth at 1 ppm,Sclerotinia sclerotiorum; [4],7%
same,inhibition of growth at 4 ppm,Sclerotinia sclerotiorum; [5],10%
same,inhibition of growth at 16 ppm,"Sclerotinia sclerotiorum; Sclerotinia sclerotiorum, 168 h, single active compound, 16 ppm, read-out: Observed efficacy",32%
same,inhibition of growth at 1 ppm,Septoria tritici; [2],9%
same,inhibition of growth at 4 ppm,Septoria tritici; [6],18%
same,inhibition of growth at 16 ppm,Septoria tritici; [7],37%
same,inhibition of growth at 0.25 ppm,Pyricularia oryzae; [3],23%
same,inhibition of growth at 1 ppm,Pyricularia oryzae; [3],24%
same,inhibition of growth at 4 ppm,Pyricularia oryzae; [3],53%
same,inhibition of growth at 0.25 ppm,Botrytis cinerea; [8],13%
same,inhibition of growth at 1 ppm,"Botrytis cinerea; single active compound, 1 ppm",13%
same,inhibition of growth at 4 ppm,"Botrytis cinerea; single active compound, 4 ppm",16%
same,inhibition of growth at 16 ppm,Botrytis cinerea; single active compound,19%
Cc1cc(C2=NC(C)(C)C(F)(F)c3ccccc32)cnc1C(F)F [Compound 1-2],inhibition of growth at 4 ppm,Sclerotinia sclerotiorum; [5],16%
same,inhibition of growth at 0.25 ppm,Septoria tritici; [9],12%
same,inhibition of growth at 1 ppm,Septoria tritici; [2],6%
same,inhibition of growth at 4 ppm,Septoria tritici; [6],29%
same,inhibition of growth at 0.063 ppm,Pyricularia oryzae; [3],14%
same,inhibition of growth at 0.25 ppm,Pyricularia oryzae; [3],20%
same,inhibition of growth at 1 ppm,Pyricularia oryzae; [3],32%
same,inhibition of growth at 1 ppm,"Botrytis cinerea; single active compound, 1 ppm",15%
same,inhibition of growth at 4 ppm,"Botrytis cinerea; single active compound, 4 ppm",19%
same,inhibition of growth at 16 ppm,Botrytis cinerea; single active compound,31%
Cc1ncc(C2=NC(C)(C)C(F)(F)c3ccccc32)cc1CF [Compound 1-3],inhibition of growth at 1 ppm,Sclerotinia sclerotiorum; [4],3%
same,inhibition of growth at 4 ppm,Sclerotinia sclerotiorum; [5],8%
same,inhibition of growth at 0.063 ppm,Septoria tritici; [10],11%
same,inhibition of growth at 0.25 ppm,Septoria tritici; [9],13%
same,inhibition of growth at 1 ppm,Septoria tritici; [2],9%
same,inhibition of growth at 4 ppm,Septoria tritici; [6],13%
same,inhibition of growth at 16 ppm,Septoria tritici; [7],34%
same,inhibition of growth at 0.025 ppm,Pyricularia oryzae; [3],20%
same,inhibition of growth at 1 ppm,Pyricularia oryzae; [3],26%
same,inhibition of growth at 4 ppm,Pyricularia oryzae; [3],52%
same,inhibition of growth at 1 ppm,"Botrytis cinerea; single active compound, 1 ppm",6%
same,inhibition of growth at 4 ppm,"Botrytis cinerea; single active compound, 4 ppm",9%
same,inhibition of growth at 16 ppm,Botrytis cinerea; single active compound,19%
COc1cc(C2=NC(C)(C)C(F)(F)c3ccccc32)cnc1C(F)F [Compound 1-4],inhibition of growth at 0.25 ppm,Septoria tritici; [9],7%
same,inhibition of growth at 1 ppm,Septoria tritici; [2],8%
same,inhibition of growth at 4 ppm,Septoria tritici; [6],1%
same,inhibition of growth at 16 ppm,Septoria tritici; [7],17%
same,inhibition of growth at 0.063 ppm,Pyricularia oryzae; [3],18%
same,inhibition of growth at 0.25 ppm,Pyricularia oryzae; [3],23%
same,inhibition of growth at 1 ppm,Pyricularia oryzae; [3],29%
same,inhibition of growth at 4 ppm,Pyricularia oryzae; [3],42%
same,inhibition of growth at 1 ppm,"Botrytis cinerea; single active compound, 1 ppm",12%
same,inhibition of growth at 4 ppm,"Botrytis cinerea; single active compound, 4 ppm",21%
same,inhibition of growth at 16 ppm,Botrytis cinerea; single active compound,41%
"Cc1cc(C2CC2)nc(Nc2ccccc2)n1 [Cyprodinil, cyprodinil]",inhibition of growth at 4 ppm,Septoria tritici; [6],10%
same,inhibition of growth at 1 ppm,Pyricularia oryzae; [3],50%
same,inhibition of growth at 4 ppm,Pyricularia oryzae; [3],61%
same,inhibition of growth at 4 ppm,"Botrytis cinerea; single active compound, 4 ppm",53%
"CC1COC(Cn2cncn2)(c2ccc(Oc3ccc(Cl)cc3)cc2Cl)O1 (stereo not drawn) [Difenoconazol, difenoconazole]",inhibition of growth at 0.016 ppm,Septoria tritici; [11],22%
same,inhibition of growth at 0.063 ppm,Pyricularia oryzae; [3],2%
same,inhibition of growth at 0.25 ppm,Pyricularia oryzae; [3],11%
same,inhibition of growth at 0.25 ppm,Botrytis cinerea; [8],21%
"N#Cc1sc2c(=O)c3ccccc3c(=O)c=2sc1C#N [Dithianon, dithianon]",inhibition of growth at 1 ppm,Sclerotinia sclerotiorum; [4],36%
same,inhibition of growth at 0.063 ppm,Septoria tritici; [10],22%
same,inhibition of growth at 0.25 ppm,Septoria tritici; [9],82%
same,inhibition of growth at 0.063 ppm,Pyricularia oryzae; [3],14%
same,inhibition of growth at 0.25 ppm,Pyricularia oryzae; [3],36%
same,inhibition of growth at 0.25 ppm,Botrytis cinerea; [8],4%
"COc1ccnc(C(=O)N[C@@H](C)C(=O)O[C@@H](C)C(c2ccc(F)cc2)c2ccc(F)cc2)c1OC(C)=O [Florylpicoxamid, florylpicoxamid]",Observed efficacy,"Septoria tritici; single active, 0.063 ppm",54%
same,Observed efficacy,"Septoria tritici; single active, 0.25 ppm",79%
same,Observed efficacy,Pyricularia oryzae; 0.016 ppm,49%
same,Observed efficacy,Botrytis cinerea; [8],2%
same,Observed efficacy,"Botrytis cinerea; single active compound, 1 ppm",12%
"O=[N+]([O-])c1cc(C(F)(F)F)c(Cl)c([N+](=O)[O-])c1Nc1ncc(C(F)(F)F)cc1Cl [Fluazinam, fluazinam]",inhibition of growth at 0.25 ppm,Sclerotinia sclerotiorum; [4],58%
same,inhibition of growth at 0.063 ppm,Pyricularia oryzae; [3],6%
"N#Cc1c[nH]cc1-c1cccc2c1OC(F)(F)O2 [Fludioxonil, fludioxonil]",inhibition of growth at 0.016 ppm,"Sclerotinia sclerotiorum; Sclerotinia sclerotiorum, 168 h, read-out: Observed efficacy",13%
same,inhibition of growth at 0.25 ppm,Septoria tritici; [12],10%
same,inhibition of growth at 0.004 ppm,Pyricularia oryzae; [3],16%
same,inhibition of growth at 0.016 ppm,Pyricularia oryzae; [3],35%
same,inhibition of growth at 0.063 ppm,Pyricularia oryzae; [3],40%
"CC1CC(C)(C)c2c(F)ccc(NC(=O)c3cn(C)nc3C(F)F)c21 (stereo not drawn) [Fluindapyr, fluindapyr]",Observed efficacy,"Septoria tritici; single active, 0.25 ppm",22%
same,Observed efficacy,"Septoria tritici; single active, 1 ppm",67%
same,Observed efficacy,Pyricularia oryzae; 1 ppm,41%
same,Observed efficacy,Botrytis cinerea; [8],30%
"Cn1cc(C(=O)Nc2ccccc2-c2cc(F)c(F)c(F)c2)c(C(F)F)n1 [Fluxapyroxad, fluxapyroxad]",Observed efficacy,"Septoria tritici; single active, 0.063 ppm",24%
same,Observed efficacy,Pyricularia oryzae; 0.063 ppm,8%
same,Observed efficacy,Botrytis cinerea; [1],28%
"Cc1cc(OC(C)C)ccc1C(=O)C(C)(C)NC(=O)c1sccc1C [Isofetamid, isofetamid]",Observed efficacy,"Septoria tritici; single active, 0.25 ppm",44%
same,Observed efficacy,Pyricularia oryzae; 1 ppm,1%
same,Observed efficacy,Pyricularia oryzae; 4 ppm,10%
same,Observed efficacy,"Botrytis cinerea; single active compound, 1 ppm",68%
"CC(C)c1ccc(Cl)cc1CN(C(=O)c1c(C(F)F)nn(C)c1F)C1CC1 [Isoflucypram, isoflucypram]",Observed efficacy,"Septoria tritici; single active, 0.063 ppm",72%
same,Observed efficacy,Pyricularia oryzae; 1 ppm,14%
same,Observed efficacy,Botrytis cinerea; [8],59%
"COc1cc(C)c(C(=O)c2c(OC)ccc(Br)c2C)c(OC)c1OC [Metrafenon, metrafenone]",inhibition of growth at 4 ppm,Septoria tritici; [6],4%
same,inhibition of growth at 16 ppm,Septoria tritici; [7],16%
same,inhibition of growth at 1 ppm,Pyricularia oryzae; [3],2%
same,inhibition of growth at 4 ppm,Pyricularia oryzae; [3],7%
same,inhibition of growth at 4 ppm,"Botrytis cinerea; single active compound, 4 ppm",3%
same,inhibition of growth at 16 ppm,Botrytis cinerea; single active compound,18%
"C=CCOC1=NS(=O)(=O)c2ccccc21 [Probenazol, probenazole]",inhibition of growth at 4 ppm,Septoria tritici; [6],4%
same,inhibition of growth at 4 ppm,Pyricularia oryzae; [3],2%
same,inhibition of growth at 16 ppm,Pyricularia oryzae; [3],12%
same,inhibition of growth at 63 ppm,Botrytis cinerea; single active compound,22%
"CC(C)O/N=C(/CNC(=O)c1cn(C)nc1C(F)F)c1ncc(C#CC2CC2)cc1Cl [Pyrapropyon, pyrapropoyne]",inhibition of growth at 4 ppm,Sclerotinia sclerotiorum; [5],55%
same,inhibition of growth at 1 ppm,Septoria tritici; [2],42%
same,inhibition of growth at 4 ppm,Pyricularia oryzae; [3],1%
same,inhibition of growth at 16 ppm,Pyricularia oryzae; [3],4%
same,inhibition of growth at 4 ppm,"Botrytis cinerea; single active compound, 4 ppm",35%
same,inhibition of growth at 16 ppm,Botrytis cinerea; single active compound,71%
"Cc1cc(C)nc(Nc2ccccc2)n1 [Pyrimethanil, pyrimethanil]",inhibition of growth at 1 ppm,Sclerotinia sclerotiorum; [4],15%
same,inhibition of growth at 4 ppm,Sclerotinia sclerotiorum; [5],21%
same,inhibition of growth at 1 ppm,Septoria tritici; [2],6%
same,inhibition of growth at 16 ppm,Septoria tritici; [7],21%
same,inhibition of growth at 1 ppm,"Botrytis cinerea; single active compound, 1 ppm",50%
same,inhibition of growth at 4 ppm,"Botrytis cinerea; single active compound, 4 ppm",72%
"CC1(C)N=C(c2cnc3ccccc3c2)c2ccccc2C1(F)F [Quinofumelin, quinofumelin]",Observed efficacy,"Sclerotinia sclerotiorum; single active compound, 4 ppm",65%
same,Observed efficacy,"Septoria tritici; single active, 1 ppm",41%
same,Observed efficacy,Pyricularia oryzae; 1 ppm,34%
same,Observed efficacy,"Botrytis cinerea; single active compound, 1 ppm",30%
"FC(F)C(F)(F)OCC(Cn1cncn1)c1ccc(Cl)cc1Cl (stereo not drawn) [Tetraconazol, tetraconazole]",inhibition of growth at 0.004 ppm,"Septoria tritici; Zymoseptoria tritici, 168 h, single active, 0.004 ppm, read-out: Observed efficacy",6%
same,inhibition of growth at 0.063 ppm,Septoria tritici; [10],12%
same,inhibition of growth at 0.063 ppm,Pyricularia oryzae; [3],7%
same,inhibition of growth at 0.063 ppm,Botrytis cinerea; [1],5%
"Cc1nc(C(F)(F)F)c(C(=O)Nc2c(Br)cc(OC(F)(F)F)cc2Br)s1 [Thifluzamid, thifluzamide]",inhibition of growth at 4 ppm,Septoria tritici; [12],69%
same,inhibition of growth at 1 ppm,Pyricularia oryzae; [3],2%
same,inhibition of growth at 4 ppm,Pyricularia oryzae; [3],16%
same,inhibition of growth at 4 ppm,Botrytis cinerea,37%
"Cc1ccc(NC(=O)c2snnc2C)cc1Cl [Tiadinil, tiadinil]",inhibition of growth at 4 ppm,Septoria tritici; [6],21%
same,inhibition of growth at 16 ppm,Septoria tritici; [7],18%
same,inhibition of growth at 63 ppm,"Septoria tritici; Zymoseptoria tritici, 168 h, single active, 63 ppm, read-out: Observed efficacy",30%
same,inhibition of growth at 4 ppm,Pyricularia oryzae; [3],2%
same,inhibition of growth at 16 ppm,Pyricularia oryzae; [3],10%
same,inhibition of growth at 63 ppm,Pyricularia oryzae; [3],21%
same,inhibition of growth at 16 ppm,Botrytis cinerea; single active compound,6%
same,inhibition of growth at 63 ppm,Botrytis cinerea; single active compound,19%
"CON=C(C(=O)OC)c1ccccc1CON=C(C)c1cccc(C(F)(F)F)c1 [Trifloxystrobin, trifloxystrobin]",inhibition of growth at 0.016 ppm,Septoria tritici; [11],27%
same,inhibition of growth at 0.004 ppm,Pyricularia oryzae; [3],8%
same,inhibition of growth at 0.016 ppm,Pyricularia oryzae; [3],23%
same,inhibition of growth at 0.063 ppm,Botrytis cinerea; [1],4%
